Assay results as given in article PMC5882164, “A novel calcimimetic agent, evocalcet (MT-4580/KHK7580), suppresses the parathyroid cell function with little effect on the gastrointestinal tract or CYP isozymes in vivo and in vitro” (PLoS ONE, 2018).
Counter-ions that a name gives are not always drawn.

What was measured:
[1] = system: emesis; details: common marmoset, in vivo, 4 h
Protocol: The study of effect of evocalcet on emesis in common marmoset was performed by referencing a previously reported method. The marmosets (n = 24) used for this study were housed in cages (460 × 600 × 655 mm) with environmental enrichments (wooden perches, swing, and balls) and acclimated for at least 4 weeks. The marmosets were fasted from evening on the day before administration. To confirm the reduction in the serum PTH levels, blood samples (about 300~400 μL, 1.2∼1.6% of total blood volume) were collected from the femoral or saphenous vein without an anesthesia before and at 1 and 4 h after the oral administration of evocalcet (1.5 or 5 μg/kg, n = 3 in each dose) or cinacalcet (300 or 500 μg/kg, n = 3 in each dose) suspended in 0.5% methyl cellulose solution using a metallic gastric zonde. The serum PTH level was measured using a Porcine Intact PTH ELISA kit (Immutopics, Inc., San Clemente, CA, USA). To evaluate the emetic effects in marmosets, evocalcet (50 or 150 μg/kg) or cinacalcet (1500 or 5000 μg/kg) was orally administered (n = 6/drug, dose down titration, n = 12 in total). The observation of emesis was conducted until 4 h after the administration.

[2] = biological target: T1, CYP2A6 (Homo sapiens, UniProt P11509); experiment: CYP inhibition assay in human liver microsomes; assay type: in vitro ADME; details: no pre-incubation, read-out: IC50 direct inhibition of CYP2A6
T1 construct: from tissue; host or cells: human liver microsomes
T1 sequence (P11509 1-494): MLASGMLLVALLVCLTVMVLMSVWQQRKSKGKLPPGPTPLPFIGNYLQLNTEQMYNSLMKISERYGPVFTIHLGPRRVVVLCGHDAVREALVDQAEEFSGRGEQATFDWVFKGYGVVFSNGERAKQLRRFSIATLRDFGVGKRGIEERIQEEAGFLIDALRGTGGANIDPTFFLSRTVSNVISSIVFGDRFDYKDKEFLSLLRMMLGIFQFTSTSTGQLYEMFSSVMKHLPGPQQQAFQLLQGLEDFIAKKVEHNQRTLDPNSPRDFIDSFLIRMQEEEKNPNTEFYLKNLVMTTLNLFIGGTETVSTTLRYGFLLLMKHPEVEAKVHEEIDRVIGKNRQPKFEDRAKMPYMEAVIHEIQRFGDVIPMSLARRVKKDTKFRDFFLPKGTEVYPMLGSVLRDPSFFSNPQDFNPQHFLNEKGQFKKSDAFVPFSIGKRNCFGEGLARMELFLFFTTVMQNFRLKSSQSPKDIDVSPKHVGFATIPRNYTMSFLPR
Protocol: (§1) The direct inhibition of evocalcet (0.15~50 μM, 6-point concentrations) against the specific activities of 9 CYP isozymes (CYP1A2, CYP2A6, CYP2B6, CYP2C8, CYP2C9, CYP2C19, CYP2D6, CYP2E1, and CYP3A4/5) was examined in human liver microsomes without the pre-incubation of evocalcet, in the presence of the NADPH-generating system. Each CYP substrate was incubated with human liver microsomes in the absence or presence of evocalcet, and the inhibition of evocalcet for each CYP isozyme was measured.

[3] = system: CYP3A4/5; experiment: CYP inhibition assay in human liver microsomes; assay type: in vitro ADME; details: no pre-incubation, read-out: IC50 direct inhibition of CYP3A4/5
Protocol: as §1

[4] = biological target: T2, CYP2B6 (Homo sapiens, UniProt P20813); experiment: CYP inhibition assay in human liver microsomes; assay type: in vitro ADME; details: no pre-incubation, read-out: IC50 direct inhibition of CYP2B6
T2 construct: from tissue; host or cells: human liver microsomes
T2 sequence (P20813 1-491): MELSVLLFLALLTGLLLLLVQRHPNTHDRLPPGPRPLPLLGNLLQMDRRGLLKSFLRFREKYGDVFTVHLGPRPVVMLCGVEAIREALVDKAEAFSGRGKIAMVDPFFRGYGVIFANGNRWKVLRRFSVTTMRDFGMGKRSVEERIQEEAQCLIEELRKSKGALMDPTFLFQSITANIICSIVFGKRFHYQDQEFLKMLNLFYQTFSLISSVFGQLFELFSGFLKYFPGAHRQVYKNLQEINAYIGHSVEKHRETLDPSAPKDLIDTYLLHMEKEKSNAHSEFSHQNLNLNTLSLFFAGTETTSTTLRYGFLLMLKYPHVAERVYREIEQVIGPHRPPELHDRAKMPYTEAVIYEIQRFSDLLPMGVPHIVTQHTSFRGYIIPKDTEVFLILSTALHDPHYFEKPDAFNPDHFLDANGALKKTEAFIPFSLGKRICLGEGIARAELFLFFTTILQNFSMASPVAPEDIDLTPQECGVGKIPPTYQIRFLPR
Protocol: as §1

[5] = biological target: CYP2D6 (Homo sapiens, UniProt P10635); experiment: CYP inhibition assay in human liver microsomes; assay type: in vitro ADME; details: no pre-incubation
Chain of CYP2D6 (P10635 whole entry): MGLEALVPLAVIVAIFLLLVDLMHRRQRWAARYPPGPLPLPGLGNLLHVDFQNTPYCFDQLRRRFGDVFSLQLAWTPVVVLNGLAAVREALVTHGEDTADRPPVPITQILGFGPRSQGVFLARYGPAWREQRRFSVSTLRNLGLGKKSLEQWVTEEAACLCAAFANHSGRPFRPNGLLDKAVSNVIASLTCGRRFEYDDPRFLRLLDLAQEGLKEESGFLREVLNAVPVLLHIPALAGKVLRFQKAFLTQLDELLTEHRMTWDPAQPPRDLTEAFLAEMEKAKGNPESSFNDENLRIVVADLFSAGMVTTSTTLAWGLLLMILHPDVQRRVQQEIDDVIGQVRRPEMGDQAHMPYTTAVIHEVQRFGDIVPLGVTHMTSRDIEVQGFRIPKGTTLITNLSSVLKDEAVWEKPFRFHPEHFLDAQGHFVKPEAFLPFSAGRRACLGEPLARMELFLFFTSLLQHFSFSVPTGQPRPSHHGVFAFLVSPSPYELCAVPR
Protocol: as §1

[6] = biological target: T3, CYP2E1 (Homo sapiens, UniProt P05181); experiment: CYP inhibition assay in human liver microsomes; assay type: in vitro ADME; details: no pre-incubation, read-out: IC50 direct inhibition of CYP2E1
T3 construct: from tissue; host or cells: human liver microsomes
T3 sequence (P05181 whole entry): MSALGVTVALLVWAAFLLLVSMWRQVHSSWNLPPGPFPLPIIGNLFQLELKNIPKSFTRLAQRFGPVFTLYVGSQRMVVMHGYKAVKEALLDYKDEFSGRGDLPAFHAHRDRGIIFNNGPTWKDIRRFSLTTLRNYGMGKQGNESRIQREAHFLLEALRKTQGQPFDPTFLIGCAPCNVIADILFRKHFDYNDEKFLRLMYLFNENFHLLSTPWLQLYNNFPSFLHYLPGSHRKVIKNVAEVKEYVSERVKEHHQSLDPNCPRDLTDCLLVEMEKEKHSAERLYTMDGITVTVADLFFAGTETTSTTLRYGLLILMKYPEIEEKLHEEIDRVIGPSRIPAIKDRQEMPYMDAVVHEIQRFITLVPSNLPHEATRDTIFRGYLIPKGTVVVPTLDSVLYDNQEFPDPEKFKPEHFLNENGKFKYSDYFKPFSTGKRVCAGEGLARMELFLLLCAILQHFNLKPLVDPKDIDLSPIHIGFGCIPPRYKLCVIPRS
Protocol: as §1

Row | Structure (SMILES) | Safety margin [1] | IC50 [2] [µM] | IC50 [3] [µM] | IC50 [4] [µM] | CYP2D6 activity in the presence of evocalcet ([5]; 50 μM evocalcet, direct inhibition) [%] | IC50 ([5]; read-out: IC50 direct inhibition of CYP2D6) [µM] | IC50 [6] [µM]
1 | C[C@@H](NCCCc1cccc(C(F)(F)F)c1)c1cccc2ccccc12 [cinacalcet, Cinacalcet hydrochloride, reference compound] | 3 < X < 10 | – | – | – | – | – | –
2 | C[C@@H](N[C@H]1CCN(c2ccc(CC(=O)O)cc2)C1)c1cccc2ccccc12 [evocalcet] | – | > 50 | > 50 | > 50 | 50.7 | > 50 | > 50
